Results reported in PubChem BioAssay AID2060346 (Molecular Pharmacology Branch, DTP, NCI, 2025).
pIC50: −log10 of the molar value. Activity calls are given as the source filed them. Rule for the calls: active = viability on the fitted dose curve at most 10% of control; inactive = the rest.

System: CN0375-F725-PDC multi-cell spheroids, viability
Assay: Anticancer human tumor CN0375-F725-PDC patient-derived colon carcinoma cell line growth inhibition [TAK]
Details: for pIC50: curve of first compound; for viability, T/C: stronger effect = lower value
Description: Combinatorial screen of targeted agents with TAK-243 and ipatasertib in multi-cell type tumor spheroids
A high-throughput screen of multi-cell type tumor spheroids was designed to identify active combinations of targeted small molecules and TAK-243 or ipatasertib. Complex spheroids include a stromal component modeled by human endothelial cells (HUVEC) and fibroblasts modeled by human mesenchymal stem cells (MSCs). The concentration ranges selected for each drug and investigational agent were based upon clinically achievable concentrations if the clinical Cmax of the agent was known.
Compounds. The drugs and investigational agents: TAK-243 (785004), ipatasertib (767898), everolimus (733504), selumetinib (741078), bortezomib (756655), trametinib (758246), ixazomib (758254), vemurafenib (761431), dabrafenib (764134), sapanisertib (764658), alpelisib (765974), and copanlisib (816437), were obtained from the National Cancer Institute (NCI) Developmental Therapeutics Program Chemical Repository. The FDA-approved anticancer drug set is available from the NCI Developmental Therapeutics Program. […] The stock solutions were prepared in dimethyl sulfoxide (DMSO, Sigma-Aldrich, St. Louis, MO, cat. D2650) at 800-fold the tested concentration and stored at -70 degrees C prior to their use. All drugs and investigational agents were tested over a range starting from a high concentration at or near the clinical Cmax and decreasing in half-log increments. If the clinical Cmax for an agent had not been determined, the highest concentration tested was 10 microM.
NCI60 Cell Culture. NCI60 cell lines were obtained from the NCI Developmental Therapeutics Program Tumor Repository. For each lot of cells, the Repository performed Applied Biosystems AmpFLSTR Identifiler testing with PCR amplification to confirm consistency with the published Identifier STR profile for each cell line. Cells were kept in continuous culture for no more than 20 passages. The optimal seeding densities for each of the cell lines at each time point assessed were determined prior to performing the concentration response studies. Briefly, the NCI60 human tumor lines were grown as monolayers in RPMI 1640 medium supplemented with 10% FBS and 2 mmol/L L-glutamine.
An additional 2 lines were from the NCI60 cell line panel including melanomas, MALME-3M and SK-MEL-2. Pooled donor human umbilical vein endothelial cells (HUVEC, Lonza, cat. CC-2519) and human mesenchymal stem cells (hMSC, Lonza, cat. PT-2501) were purchased from Lonza (Walkersville, MD).
PDMR cell lines were grown in complete medium (DC medium): Dulbecco's modified Eagle's medium (DMEM)/F12 supplemented with 5% fetal bovine serum (FBS), 2 mM L-glutamine, 100 U/mL penicillin and 100 µg/ml streptomycin, 0.4 µg/ml hydrocortisone, 10 ng/ml epidermal growth factor (EGF) recombinant human protein, 24 µg/mL adenine, and 0.1 mg/mL primocin. During culture from frozen stock vials, PDMR cells were cultured in the same medium containing 10 µM Y-27632 (see Table 3). The PDCs were cultured in complete DMEM/F12 media without 10 microM Y-27632 dihydrochloride for at least two passages prior to the screen. The pooled donor HUVEC and hMSC were cultured in endothelial cell growth medium 2 (PromoCell, Heidelberg, Germany, cat. C-22011) and mesenchymal stem cell growth medium 2 (PromoCell, cat. C-28009), respectively. For all experiments, HUVEC and hMSC were used at passages </=5.
For the pre-screen, cell seeding densities were determined from a titration spanning the range from 5,000 to 313 cells per well. The mct-spheroids including 60% malignant cells, 25% HUVEC and 15% MSC dispensed as a mixture into U-bottom Ultra-Low Attachment 384-well plates (Corning, NY)
High-throughput Drug Combination Screening.
Prior to their inoculation into 384-well plates, malignant cells, HUVEC, and hMSC were removed from T flasks using TrypLE express (Thermo Fisher Scientific, cat. 12605036) and harvested by centrifugation for 5 min at 233 x g. […]

[1] = second compound 0.3 µM, first compound 0.000316 µM
[2] = second compound 0.3 µM, first compound 0.001 µM
[3] = second compound 0.3 µM, first compound 0.00316 µM
[4] = second compound 0.3 µM, first compound 0.01 µM
[5] = second compound 0.949 µM, first compound 0.000316 µM
[6] = second compound 0.949 µM, first compound 0.001 µM
[7] = second compound 0.949 µM, first compound 0.00316 µM
[8] = second compound 0.949 µM, first compound 0.01 µM
[9] = second compound 3 µM, first compound 0.000316 µM
[10] = second compound 3 µM, first compound 0.001 µM
[11] = second compound 3 µM, first compound 0.00316 µM
[12] = second compound 3 µM, first compound 0.01 µM
[13] = second compound 9.49 µM, first compound 0.000316 µM
[14] = second compound 9.49 µM, first compound 0.001 µM
[15] = second compound 9.49 µM, first compound 0.00316 µM
[16] = second compound 9.49 µM, first compound 0.01 µM
[17] = second compound 30 µM, first compound 0.000316 µM
[18] = second compound 30 µM, first compound 0.001 µM
[19] = second compound 30 µM, first compound 0.00316 µM
[20] = second compound 30 µM, first compound 0.01 µM
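Throughout, for pIC50: spheroids exposed to drugs for seven days.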
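Throughout, for viability, T/C: spheroids exposed to drugs for seven days.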

With `CC(C)CC(NC(=O)C(Cc1ccccc1)NC(=O)c1cnccn1)B(O)O` (stereo not given) + CC(C)NCC(C(=O)N1CCN(c2ncnc3c2C(C)CC3O)CC1)c1ccc(Cl)cc1 the pIC50 (second compound 0.3 µM) was 8.13, the pIC50 (second compound 0.949 µM) was 8.10 and the pIC50 (second compound 3 µM) was 8.10. The pIC50 (second compound 9.49 µM) was 8.23, the pIC50 (second compound 30 µM) was 8.60 and the viability, T/C (second compound 0.3 µM, first compound 31.6 pM) was 100%. For the same compound, the viability, T/C (second compound 0.3 µM, first compound 0.0001 µM) was 99%, the viability, T/C [1] was 93.6% and the viability, T/C [2] was 99.5%. For the same compound, the viability, T/C [3] was 92.1%, the viability, T/C [4] was 34.9% and the viability, T/C (second compound 0.949 µM, first compound 31.6 pM) was 99.6%. The viability, T/C (second compound 0.949 µM, first compound 0.0001 µM) was 101%, the outcome [5] was “inactive” and the viability, T/C [6] was 90.3%. For the same compound, the viability, T/C [7] was 93%, the viability, T/C [8] was 38.8% and the viability, T/C (second compound 3 µM, first compound 31.6 pM) was 89.3%. For the same compound, the viability, T/C (second compound 3 µM, first compound 0.0001 µM) was 93%, the viability, T/C [9] was 91.8% and the viability, T/C [10] was 93.1%. For the same compound, the viability, T/C [11] was 82.8%, the viability, T/C [12] was 41.2% and the viability, T/C (second compound 9.49 µM, first compound 31.6 pM) was 85.2%. It also gave a viability, T/C (second compound 9.49 µM, first compound 0.0001 µM) of 95.3%, a viability, T/C [13] of 87.2% and a viability, T/C [14] of 93.6%. It also gave a viability, T/C [15] of 76.7%, a viability, T/C [16] of 26.6% and a viability, T/C (second compound 30 µM, first compound 31.6 pM) of 72.3%. For the same compound, the viability, T/C (second compound 30 µM, first compound 0.0001 µM) was 86.8%, the viability, T/C [17] was 84.4% and the viability, T/C [18] was 76.6%. For the same compound, the viability, T/C [19] was 42.9% and the viability, T/C [20] was 9.84%.

`COC1CC2CCC(C)C(O)(O2)C(=O)C(=O)N2CCCCC2C(=O)OC(C(C)CC2CCC(OCCO)C(OC)C2)CC(=O)C(C)C=C(C)C(O)C(OC)C(=O)C(C)CC(C)C=CC=CC=C1C` (stereo not given) + CC(C)NCC(C(=O)N1CCN(c2ncnc3c2C(C)CC3O)CC1)c1ccc(Cl)cc1 gave a pIC50 (second compound 0.3 µM) of less than 7.00, a pIC50 (second compound 0.949 µM) of less than 7.00 and a pIC50 (second compound 3 µM) of less than 7.00. It also gave a pIC50 (second compound 9.49 µM) of less than 7.00, a pIC50 (second compound 30 µM) of less than 7.00 and a viability, T/C [1] of 97.5%. It also gave a viability, T/C [2] of 95.1%, a viability, T/C [3] of 89.1% and a viability, T/C [4] of 82.5%. The viability, T/C (second compound 0.3 µM, first compound 0.0316 µM) was 81.1%, the viability, T/C (second compound 0.3 µM, first compound 0.1 µM) was 81.1% and the viability, T/C [5] was 99%. It also gave a viability, T/C [6] of 94.8%, a viability, T/C [7] of 84.5% and a viability, T/C [8] of 81.1%. The viability, T/C (second compound 0.949 µM, first compound 0.0316 µM) was 78.3%, the viability, T/C (second compound 0.949 µM, first compound 0.1 µM) was 78.2% and the viability, T/C [9] was 88.7%. The viability, T/C [10] was 83.9%, the viability, T/C [11] was 83.9% and the viability, T/C [12] was 77.8%. The viability, T/C (second compound 3 µM, first compound 0.0316 µM) was 77.4%, the viability, T/C (second compound 3 µM, first compound 0.1 µM) was 75.9% and the viability, T/C [13] was 83.3%. For the same compound, the viability, T/C [14] was 84.1%, the viability, T/C [15] was 80.7% and the viability, T/C [16] was 71.1%. The viability, T/C (second compound 9.49 µM, first compound 0.0316 µM) was 76%, the viability, T/C (second compound 9.49 µM, first compound 0.1 µM) was 71% and the viability, T/C [17] was 71.3%. For the same compound, the viability, T/C [18] was 76.8%, the viability, T/C [19] was 72.2% and the viability, T/C [20] was 63.5%. The viability, T/C (second compound 30 µM, first compound 0.0316 µM) was 75.8% and the viability, T/C (second compound 30 µM, first compound 0.1 µM) was 68.5%.

`Cn1cnc2c(F)c(Nc3ccc(Br)cc3Cl)c(C(=O)NOCCO)cc21` + CC(C)NCC(C(=O)N1CCN(c2ncnc3c2C(C)CC3O)CC1)c1ccc(Cl)cc1 showed a pIC50 (second compound 0.3 µM) of 6.59, a pIC50 (second compound 0.949 µM) of 6.65 and a pIC50 (second compound 3 µM) of 6.79. It also gave a pIC50 (second compound 9.49 µM) of 6.75, a pIC50 (second compound 30 µM) of 7.15 and a viability, T/C (second compound 0.3 µM, first compound 0.00949 µM) of 91.4%. For the same compound, the viability, T/C (second compound 0.3 µM, first compound 0.03 µM) was 75.3%, the viability, T/C (second compound 0.3 µM, first compound 0.0949 µM) was 58.8% and the viability, T/C (second compound 0.3 µM, first compound 0.3 µM) was 50%. For the same compound, the viability, T/C (second compound 0.3 µM, first compound 0.949 µM) was 38.6%, the viability, T/C (second compound 0.3 µM, first compound 3 µM) was 30.6% and the viability, T/C (second compound 0.949 µM, first compound 0.00949 µM) was 83.5%. For the same compound, the viability, T/C (second compound 0.949 µM, first compound 0.03 µM) was 78.6%, the viability, T/C (second compound 0.949 µM, first compound 0.0949 µM) was 57.6% and the viability, T/C (second compound 0.949 µM, first compound 0.3 µM) was 48.3%. For the same compound, the viability, T/C (second compound 0.949 µM, first compound 0.949 µM) was 36%, the viability, T/C (second compound 0.949 µM, first compound 3 µM) was 31.1% and the viability, T/C (second compound 3 µM, first compound 0.00949 µM) was 79.6%. It also gave a viability, T/C (second compound 3 µM, first compound 0.03 µM) of 72%, a viability, T/C (second compound 3 µM, first compound 0.0949 µM) of 56.9% and a viability, T/C (second compound 3 µM, first compound 0.3 µM) of 41.4%. For the same compound, the viability, T/C (second compound 3 µM, first compound 0.949 µM) was 34.2%, the viability, T/C (second compound 3 µM, first compound 3 µM) was 29.3% and the viability, T/C (second compound 9.49 µM, first compound 0.00949 µM) was 77.8%. It also gave a viability, T/C (second compound 9.49 µM, first compound 0.03 µM) of 69.4%, a viability, T/C (second compound 9.49 µM, first compound 0.0949 µM) of 58.2% and a viability, T/C (second compound 9.49 µM, first compound 0.3 µM) of 42.7%. For the same compound, the viability, T/C (second compound 9.49 µM, first compound 0.949 µM) was 32.7%, the viability, T/C (second compound 9.49 µM, first compound 3 µM) was 23.2% and the viability, T/C (second compound 30 µM, first compound 0.00949 µM) was 66%. It also gave a viability, T/C (second compound 30 µM, first compound 0.03 µM) of 64.2%, a viability, T/C (second compound 30 µM, first compound 0.0949 µM) of 43.5% and a viability, T/C (second compound 30 µM, first compound 0.3 µM) of 31.6%. It also gave a viability, T/C (second compound 30 µM, first compound 0.949 µM) of 22.1% and a viability, T/C (second compound 30 µM, first compound 3 µM) of 16.1%.
